The target of data set [1] is T1, S1P4 (Homo sapiens, UniProt O95977).
T1 construct: expressed in transfected cells
T1 sequence (O95977 1-384): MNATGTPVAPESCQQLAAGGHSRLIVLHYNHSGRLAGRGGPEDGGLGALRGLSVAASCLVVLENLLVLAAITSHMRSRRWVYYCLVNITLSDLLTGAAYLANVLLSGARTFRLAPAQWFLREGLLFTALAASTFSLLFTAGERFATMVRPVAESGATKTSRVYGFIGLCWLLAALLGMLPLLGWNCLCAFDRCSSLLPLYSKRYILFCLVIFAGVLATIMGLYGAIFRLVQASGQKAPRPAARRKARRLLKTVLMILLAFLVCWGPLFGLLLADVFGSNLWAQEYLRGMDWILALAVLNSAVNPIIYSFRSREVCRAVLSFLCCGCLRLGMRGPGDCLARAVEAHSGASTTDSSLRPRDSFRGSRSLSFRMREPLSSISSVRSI
Kind of data set: In vitro agonistic activity on S1P4, PathHunter cell line. Type of data set: cell-based. Particulars: PathHunter cells. The protocol: (§1) Assay Example 5: In Vitro Evaluation of the Agonistic Activity of the Compound of the Present Disclosure on S1P2, S1P3 and S1P4
(§2) Object of the assay: To detect the agonistic activity of the compound on S1P2, S1P3, and S1P4
(§3) • 1. PathHunter cell line was expanded from freezer according to standard procedures. • 2. Cells were seeded into a white 384-well microplate in a total volume of 20 μL and incubated at 37° C. for an appropriate time prior to testing. II. Agonist Assay • 1. For the agonist assay, cells were incubated with a sample to induce a response. • 2. Stock solution was stored in a buffer at a concentration of 5 times the concentration to be tested. • 3. 5 μl of the stock solution sample at a concentration of 5 times the concentration to be tested was added to the cells and incubated at 37° C. or room temperature for 90-180 min with a vehicle concentration of 1%. III. Signal Detection • 1. […] Chemiluminescent Signal detection was performed using a PerkinElmer Envision™ instrument, and the microplate was read after signal generation. […] The activity of the compound was analyzed using the CBIS data analysis suite (ChemInnovation, CA). • 2. For the agonist mode assay, the percent activity was calculated using the following formula: % Activity=100%×(Mean RLU of the Assay Sample−Mean RLU of the Blank Control)/(Mean MAX Control Ligand−Mean RLU of the Blank Control).

Data set [2] can be described thus: Metabolite identification after incubation in human hepatocytes. Type of data set: in vitro ADME. The settings on record: 10 μM, 37° C., 2 hours. The protocol:
(§4) Assay Example 4: Analysis and Identification of Metabolites of the Compound in Human Liver Microsome and Hepatocyte Incubation System
(§5) By using high-resolution mass spectrometry, the metabolite produced by the incubation of compound 32B in human liver microsomes and human hepatocytes was found, and identified for its structure; the percentage content of compound 32B and its metabolite was calculated by using LC-UV; and the possible biotransformation pathway of compound 32B in human liver microsomes and human hepatocytes in vitro was studied.
Compound 32B (10 μM) was incubated in mouse, rat, canine, monkey, and human hepatocyte systems at 37° C. for 120 min. 7-ethoxycoumarin (7-EC, 30 μM) was used as a positive control to evaluate the enzymatic metabolic activity in the hepatocyte incubation system. The incubated sample was analyzed by LC-UV-MS. The structure of each metabolite was resolved and identified based on its primary and secondary mass spectrometry signals and/or comparison with a standard. The relative percentage of the UV-integrated peak area of each metabolite was given through data collected from the sample by HPLC-UV-MS, and the possible structure of the metabolite and its possible metabolic pathway in various genera of hepatocytes were inferred from the mass spectrometry information of the metabolite.

The target of data set [3] is T2, S1P3 (Homo sapiens, UniProt Q99500).
T2 construct: expressed in transfected cells
Kind of data set: In vitro agonistic activity on S1P3, PathHunter cell line. Particulars: PathHunter cells. Type of data set: cell-based. The protocol: as §1, §2, §3

A short description of data set [4]: Pharmacokinetic evaluation in SD rats (iv and oral). Type of data set: in vivo, Sprague Dawley rats. Particulars: 1 mg/kg. Here is the method: Assay Example 2: Pharmacokinetic Evaluation of Compounds in Rats
Object of the assay: To evaluate the in vivo pharmacokinetics of the compounds in SD rats
Sprague Dawley rats (male, 200-300 g, 7-9 weeks old, Shanghai SLAC)
The pharmacokinetic characteristics of the compounds in rodents after intravenous injection and oral administration were assayed according to the standard protocol. In the assay, the candidate compounds were formulated into clear solutions and administered to rats by single intravenous injection and oral administration. The vehicle for intravenous injection and oral administration was DMSO and 10% hydroxypropyl β-cyclodextrin in water (DMSO:10% hydroxypropyl β-cyclodextrin in water=5:95). Whole blood samples were collected within 48 hours, and centrifuged at 3000 g for 15 minutes. The supernatant was separated to give plasma samples. 4 times the volume of acetonitrile solution containing internal standard was added to precipitate protein. The resulting mixture was centrifuged and the supernatant was taken out. An equal volume of water was added and the mixture was centrifuged. The supernatant was taken out, and injected as a sample to quantitatively analyze the plasma drug concentration by LC-MS/MS analysis method. The pharmacokinetic parameters, such as peak concentration, time to peak, clearance rate, half-life, area under drug-time curve, bioavailability, etc., were calculated.

The nature of data set [5]: Metabolite identification after incubation in human liver microsomes with NADPH. The settings on record: 10 μM, 37° C., 1 hour. Type of data set: in vitro ADME. The protocol: as §4, §5
Compound 32B (10 μM) was incubated in a system containing both of human liver microsomes and NADPH at 37° C. for 60 min. 7-ethoxycoumarin (7-EC, 10 μM) was used as a positive control to evaluate the enzymatic metabolic activity in the liver microsome incubation system. The incubated sample was analyzed by LC-UV-HRMS. The structure of each metabolite was resolved and identified based on its primary and secondary mass spectrometry signals and/or comparison with a standard. The relative percentage of the UV-integrated peak area of each metabolite was given through data collected from the sample by LC-UV-HRMS, and the possible structure of the metabolite and its possible metabolic pathway in various genera of liver microsomes were inferred from the mass spectrometry information of the metabolite.

Data set [6] addresses T3, S1P2 (Homo sapiens, UniProt O95136).
T3 construct: expressed in transfected cells
The data set is described as follows: In vitro agonistic activity on S1P2, PathHunter cell line. Type of data set: cell-based. The settings on record: PathHunter cells. Here is the method: as §1, §2, §3

Structures are written as SMILES. Marks after values point to notes of the source that are not given here. Bounds are passed on as bounds.

T2 sequence (Q99500 whole entry): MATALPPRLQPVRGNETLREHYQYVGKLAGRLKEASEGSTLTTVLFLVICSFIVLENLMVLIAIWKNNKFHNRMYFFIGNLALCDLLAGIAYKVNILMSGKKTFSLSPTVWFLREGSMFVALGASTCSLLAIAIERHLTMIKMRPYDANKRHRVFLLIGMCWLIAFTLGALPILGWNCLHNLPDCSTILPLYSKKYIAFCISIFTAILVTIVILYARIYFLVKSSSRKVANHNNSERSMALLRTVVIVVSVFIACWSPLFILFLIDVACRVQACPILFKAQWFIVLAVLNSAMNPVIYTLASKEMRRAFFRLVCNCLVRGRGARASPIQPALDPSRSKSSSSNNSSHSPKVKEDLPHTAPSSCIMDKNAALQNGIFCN
T3 sequence (O95136 whole entry): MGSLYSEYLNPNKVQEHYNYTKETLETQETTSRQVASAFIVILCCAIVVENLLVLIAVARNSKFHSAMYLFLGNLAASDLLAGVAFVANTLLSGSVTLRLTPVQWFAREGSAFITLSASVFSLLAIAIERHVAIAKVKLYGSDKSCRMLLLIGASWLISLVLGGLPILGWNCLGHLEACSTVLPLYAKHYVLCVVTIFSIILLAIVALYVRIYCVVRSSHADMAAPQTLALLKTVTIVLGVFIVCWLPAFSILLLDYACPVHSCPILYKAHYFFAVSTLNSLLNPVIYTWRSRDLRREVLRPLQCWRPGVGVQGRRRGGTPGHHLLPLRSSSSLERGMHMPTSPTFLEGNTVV

Turning to `CC(=NOCc1ccc(OC(C)C)c(C(F)(F)F)c1)c1ccc2c(c1)CCC2N1CC(C(=O)O)C1` (single isomer, unassigned) [Compound 32B], in data set [1], the EC50 was greater than 0.3 µM. In addition, in data set [2], the Metabolites detected entry is “no other metabolite was detected” and the “Relative abundance of the original drug” value stood at 100.00%. For the same molecule, the 50% effective concentration (EC50) in data set [3] was greater than 0.3 µM. Further, the “Half life T1/2 (PO)” value in data set [4] (iv 1.0 mg/kg only (head prints PO)) was determined as 8.3 h. For the same molecule, in data set [4] (iv 1.0 mg/kg), the “Area under drug-time curve AUC0-last iv” value is recorded as 7483* nM · hr, the “Clearance rate CL” value stood at 3.97 mL/min/kg and the “Distribution in tissue Vdss” value was determined as 2.7 L/kg. For the same molecule, in data set [5], the Metabolites detected entry is “no other metabolite was detected” and the “Relative abundance of the original drug” value was 100.00%. In addition, the EC50 in data set [6] is greater than 0.3 µM.

The values are drawn from patent publication US12479794B2, “Acetophenone oxime compound and application thereof” (Medshine Discovery Inc., priority 2020, dated 2025).
